Holding throughout (assay type): cell-based
The target in experiment [1] is T1, TLR2 (Homo sapiens, UniProt O60603). Kind of experiment: TLR2 agonist screening assay, HEK-Blue TLR2 reporter cell line (NF-kB-driven SEAP, absorbance at 600 nm). The arrangement: host or cells: HEK-293 (HEK-Blue TLR2 reporter cell line). Conditions: HEK-Blue TLR2 reporter cells, agonist mode. A digest of the protocol:
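EC50 values come from dilution series of agonist on TLR2-transfected HEK-293 reporter cells carrying an NF-kB-SEAP construct. Cells sat overnight with compound in substrate-containing Detection medium at 1% DMSO, and secreted phosphatase activity was quantified as absorbance at 600 nm.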

The target of experiment [2] is T1, TLR2. Kind of experiment: TLR2 antagonist screening assay, HEK Blue hTLR2 cells, competition with diprovocim. The arrangement: host or cells: HEK Blue hTLR2 cells. From the text: TLRs signal through ligand-mediated dimerization or multimerization. TLR2 may partner with TLR1 or TLR6 to produce an agonist signal. Compounds that prevent agonist signaling, antagonists, may interfere with proper dimerization or with downstream signaling. The following assay was developed to identify and characterize novel TLR2 antagonists.
The in vitro TLR2 assay consists of a cell line that responds to TLR2 engagement by producing a factor that elicits a color change in the culture media and can be readily measured by various colorimetric detection methods. This assay enables the identification of existing and novel compounds that engage TLR2. Treating reporter cells with putative TLR2 antagonists will diminish the reporter response to TLR2 agonists.
TLR2 antagonists were screened for TLR2 binding and blocking with a competition assay. […] The assay was performed with Invivogen HEK Blue cells, which express the human TLR2 receptor as well as NFkB-inducible secreted Alkaline Phosphatase. Alkaline Phosphatase activity was proportional to TLR2 activation, and thus served as a colorimetric reporter.
HEK Blue hTLR2 cells (Invivogen) were grown in DMEM with 10% FBS (Seradigm). Cells were seeded at 40,000 cells/well in 96-well plates and incubated overnight to adhere. Media was replaced with 200 uL/well HEK Blue Detection Medium (Invivogen). […] Cells incubated for 16-24 hours, then absorbance at 600 nm was read on a SpectraMax M2 (Molecular Devices). […] Four parameter dose response curves were fit according to the following model, and IC50 values were reported: Y=Bottom+(Top-Bottom)/(1+(IC50/X)^HillSlope)
Where X is the antagonist concentration, Y is the normalized absorbance, Top and Bottom are the plateaus, IC50 is the concentration at half-maximal inhibition, and HillSlope is the slope factor.
• 1. HEK-Blue TLR2 cells are diluted in complete DME culture medium and plated into 96-well plates at 40,000 cells per well and cultured overnight. • 2. After 16-24 hours in culture, the media is removed and replaced with 200 microliters per well of HEK-Blue Detection media. • 3. TLR2 antagonists are diluted 100-fold from DMSO stocks into each well, yielding a final DMSO concentration of 1% in all wells. Reporter cells are treated for 1-2 hours, then treated with TLR2 agonist diluted to the EC50-70 concentration. • 4. Treated cells are cultured overnight and the following day are assayed in plate reader for Absorbance at 600 nanometer.

The target in experiment [3] is T1, TLR2. Kind of experiment: TLR2 in vitro functional assay, cytokine release from human monocytic cell line THP-1. Conditions: THP-1 human monocytic cell line, average of all runs. How it is done: Cells of the immune system respond to TLR agonists in part by secreting cytokines. Functional assays for TLR2 agonists measure cytokine release from purified immune cells or immortalized cell lines derived from immune cells. Cytokine release is measured by standard ELISA approaches or multiplexed analysis using the Meso Scale Discovery (MSD) platform.
Following assay measurements utilizing either HEK-Blue detection or cytokine release, all data is analyzed with the GraphPad Prism8 statistical package to determine EC50, binding and activity metrics for the TLR2 modulators. […]
Numerous cell lines derived from various cell types can respond to TLR2 agonists with stereotyped cytokine and chemokine secretion. In particular, cell lines derived from macrophages respond robustly to TLR2 agonists by secreting a wide array of cytokines, including (but not limited to) TNF-alpha, IL-1, IL-10 and IL-12. The human monocytic cell line THP-1, the mouse macrophage line RAW-264.7, and the rat macrophage line NR8383 were used. For each assay, the respective cell lines were plated into 96-well plates overnight and then treated the following day with various TLR2-engaging compounds at varying concentrations. The next day, supernatants were collected and assayed by multiplex immunodetection for cytokines released (MSD detection kits for respective species).
Data provided in Table 5 is generated using protocols described in Example 45 and 46.

Experiment [4] addresses T2, TLR2 (Mus musculus, UniProt Q9QUN7).
T2 construct: endogenous in cells; host or cells: RAW 264.7
Kind of experiment: TLR2 functional assay, cytokine release from RAW 264.7 mouse macrophage cell line. To be noted: average of all runs. A digest of the protocol:
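RAW 264.7 cells plated (about 40,000 per well) and treated with compounds at varying concentrations for 6–24 h (or overnight). Released cytokines in supernatant (e.g. TNF-alpha, IL-1, IL-10, IL-12) measured by ELISA or MSD multiplex; EC50 fitted.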

T1 sequence (O60603 21-784): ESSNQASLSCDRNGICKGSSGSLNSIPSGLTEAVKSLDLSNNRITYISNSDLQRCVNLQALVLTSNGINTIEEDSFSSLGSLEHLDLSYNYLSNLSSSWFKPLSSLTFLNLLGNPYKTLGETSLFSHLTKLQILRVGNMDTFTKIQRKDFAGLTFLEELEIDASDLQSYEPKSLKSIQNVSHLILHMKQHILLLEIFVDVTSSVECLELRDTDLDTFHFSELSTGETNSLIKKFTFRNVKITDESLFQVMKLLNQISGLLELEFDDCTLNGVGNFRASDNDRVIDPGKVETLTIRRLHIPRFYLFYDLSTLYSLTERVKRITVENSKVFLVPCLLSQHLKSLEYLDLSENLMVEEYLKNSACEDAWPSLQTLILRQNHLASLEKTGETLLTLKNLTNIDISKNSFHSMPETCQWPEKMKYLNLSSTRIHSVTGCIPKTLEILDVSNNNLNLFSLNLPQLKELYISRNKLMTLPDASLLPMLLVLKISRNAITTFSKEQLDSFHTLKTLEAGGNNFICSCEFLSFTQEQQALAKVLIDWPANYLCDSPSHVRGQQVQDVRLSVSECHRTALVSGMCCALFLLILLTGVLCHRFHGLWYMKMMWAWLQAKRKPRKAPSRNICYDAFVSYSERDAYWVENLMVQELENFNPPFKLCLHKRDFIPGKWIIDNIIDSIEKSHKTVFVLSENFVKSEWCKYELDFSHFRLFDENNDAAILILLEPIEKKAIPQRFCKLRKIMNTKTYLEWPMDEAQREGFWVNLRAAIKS
T2 sequence (Q9QUN7 25-784): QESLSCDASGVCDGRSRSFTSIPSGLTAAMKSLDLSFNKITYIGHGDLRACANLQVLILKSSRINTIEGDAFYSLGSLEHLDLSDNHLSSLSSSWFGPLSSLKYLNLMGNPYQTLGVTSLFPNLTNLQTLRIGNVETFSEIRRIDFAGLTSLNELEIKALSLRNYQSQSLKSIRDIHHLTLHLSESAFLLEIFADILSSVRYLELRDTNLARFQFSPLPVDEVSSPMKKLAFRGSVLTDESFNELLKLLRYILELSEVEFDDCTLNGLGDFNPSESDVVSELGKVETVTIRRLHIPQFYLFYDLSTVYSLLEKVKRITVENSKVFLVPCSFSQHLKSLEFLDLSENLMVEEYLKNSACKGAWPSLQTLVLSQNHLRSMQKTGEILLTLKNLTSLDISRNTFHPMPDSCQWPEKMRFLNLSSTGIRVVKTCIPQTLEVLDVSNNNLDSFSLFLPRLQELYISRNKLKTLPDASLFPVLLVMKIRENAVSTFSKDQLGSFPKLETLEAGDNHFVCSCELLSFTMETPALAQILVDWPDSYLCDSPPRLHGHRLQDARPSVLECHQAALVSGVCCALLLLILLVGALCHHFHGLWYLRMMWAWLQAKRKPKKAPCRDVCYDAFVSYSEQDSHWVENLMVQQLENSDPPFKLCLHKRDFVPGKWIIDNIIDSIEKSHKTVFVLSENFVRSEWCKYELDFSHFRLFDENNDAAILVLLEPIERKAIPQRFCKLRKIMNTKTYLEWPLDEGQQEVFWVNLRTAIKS

What is called EC50 is the concentration at which the effect is half-maximal. What is called IC50 is the concentration needed to halve the response being measured. Lower therefore signals greater potency in that assay. Take `CCCCCCCC(=O)N1CCCN(S(=O)(=O)c2ccc(C(=O)N3C[C@@H](C(=O)N[C@H]4C[C@@H]4c4ccccc4)[C@H](C(=O)N[C@H]4C[C@@H]4c4ccccc4)C3)cc2)CC1C(=O)NCCCCCC` (single isomer, unassigned) [Compound 203, (3S,4S)-1-(4-(((R*)-3-(hexylcarbamoyl)-4-octanoyl-1,4-diazepan-1-yl)sulfonyl)benzoyl)-N3,N4-bis((1S,2R)-2-phenylcyclopropyl)pyrrolidine-3,4-dicarboxamide]: the EC50 at TLR2 [1] (average of all runs (Table 4)) is > 1000 nM. This molecule returned an IC50 at TLR2 [2] of 351 to 1000 nM.
`CCCCCCCCCCCCCCNC(=O)C1CN(C(=O)c2ccc(C(=O)N3C[C@@H](C(=O)N[C@H]4C[C@@H]4c4ccccc4)[C@H](C(=O)N[C@H]4C[C@@H]4c4ccccc4)C3)cc2)C1` [Compound 007]: on TLR2 [1] (average of all runs (Table 3)), the 50% effective concentration (EC50) was > 1000 nM. Besides, the IC50 at TLR2 [2] is 351 to 1000 nM.
Taken in the same sequence, the figures for `CCCCCCCCCCCCCCC(=O)NC1CCN(C(=O)c2ccc(C(=O)N3C[C@@H](C(=O)N[C@H]4C[C@@H]4c4ccccc4)[C@H](C(=O)N[C@H]4C[C@@H]4c4ccccc4)C3)cc2)CC1` [Compound 008] were > 1000 nM and 351 to 1000 nM.
Regarding `CCCCCCCCCCCCCCNC(=O)C1CN(C(=O)c2ccc(C(=O)N3C[C@@H](C(=O)N[C@H]4C[C@@H]4c4ccccc4)[C@H](C(=O)N[C@H]4C[C@@H]4c4ccccc4)C3)cc2)CCN1C(C)=O` (stereo partly shown) [Compound 024], the EC50 on TLR2 [1] (average of all runs (Table 3)) was > 1000 nM. Further, the IC50 on TLR2 [2] lay within 351 to 1000 nM.
Taken in the same sequence, the figures for `CCCCCCCC(=O)N1CCN(S(=O)(=O)c2ccc(C(=O)N3C[C@@H](C(=O)N[C@H]4C[C@@H]4c4ccccc4)[C@H](C(=O)N[C@H]4C[C@@H]4c4ccccc4)C3)cc2)CC1C(=O)NCCCCCC` (stereo partly shown) [Compound 053] were > 1000 nM and 351 to 1000 nM.
Regarding `O=C(N[C@H]1C[C@@H]1c1ccccc1)[C@@H]1CN(C(=O)C23CCC(C(=O)N4C[C@@H](C(=O)N[C@H]5C[C@@H]5c5ccccc5)[C@H](C(=O)N[C@H]5C[C@@H]5c5ccccc5)C4)(CC2)CC3)C[C@H]1C(=O)N[C@H]1C[C@@H]1c1ccccc1` [Compound 077, (3S,3'S,4S,4'S)-1,1′-(bicyclo [2.2.2]octane-1,4-dicarbonyl) bis (N3,N4-bis((1S,2R)-2-phenylcyclopropyl)pyrrolidine-3,4-dicarboxamide)], the EC50 on TLR2 [1] (average of all runs (Table 4)) is > 1000 nM. In addition, the IC50 at TLR2 [2] lay within 351 to 1000 nM.
As to `CCCCCCCCCCCCCCC(=O)N[C@H]1CN(C(=O)c2ccc(C(=O)N3C[C@@H](C(=O)N[C@H]4C[C@@H]4c4ccccc4)[C@H](C(=O)N[C@H]4C[C@@H]4c4ccccc4)C3)cc2)C[C@@H]1OC` [Compound 101, (3S,4S)-1-(4-((3S,4S)-3-methoxy-4-pentadecanamidopyrrolidine-1-carbonyl)benzoyl)-N3,N4-bis((1S,2R)-2-phenylcyclopropyl) pyrrolidine-3,4-dicarboxamide], the EC50 was 0.1 to 50 nM on TLR2 [3], 0.1 to 50 nM at TLR2 [1] (average of all runs (Table 4)) and > 1000 nM on TLR2 [4].
Take `CCCCCCCCCCCCCCNC(=O)[C@@H]1CN(C(=O)c2ccc(C(=O)N3C[C@@H](C(=O)N[C@H]4C[C@@H]4c4ccccc4)[C@H](C(=O)N[C@H]4C[C@@H]4c4ccccc4)C3)cc2)C[C@H]1OC` [Compound 109, (3S,4S)-1-(4-((3S,4R)-3-methoxy-4-(tetradecylcarbamoyl)pyrrolidine-1-carbonyl)benzoyl)-N3,N4-bis((1S,2R)-2-phenylcyclopropyl)pyrrolidine-3,4-dicarboxamide]: the results for the EC50 on TLR2 [3], on TLR2 [1] (average of all runs (Table 4)) and on TLR2 [4] were 0.1 to 50 nM, 0.1 to 50 nM and > 1000 nM, respectively.
Take `CCCCCCCC(=O)N1CCN(S(=O)(=O)c2ccc(C(=O)N3C[C@@H](C(=O)N[C@H]4C[C@@H]4c4ccccc4)[C@H](C(=O)N[C@H]4C[C@@H]4c4ccccc4)C3)cc2)C[C@H]1C(=O)NCCCCCC` [Compound 160, (3S,4S)-1-(4-(((S)-3-(hexylcarbamoyl)-4-octanoylpiperazin-1-yl)sulfonyl)benzoyl)-N3,N4-bis((1S,2R)-2-phenylcyclopropyl)pyrrolidine-3,4-dicarboxamide]: the EC50 on TLR2 [1] (average of all runs (Table 4)) is > 1000 nM. The same molecule gave an IC50 at TLR2 [2] of 351 to 1000 nM.
Regarding `CCCCCCCCCCCCCCNC(=O)[C@@H]1CN(C(=O)c2ccc(C(=O)N3C[C@@H](C(=O)N[C@H]4C[C@@H]4c4ccccc4)[C@H](C(=O)N[C@H]4C[C@@H]4c4ccccc4)C3)cc2)CCN1C(C)=O` [Compound 162, (3S,4S)-1-(4-((S)-4-acetyl-3-(tetradecylcarbamoyl)piperazine-1-carbonyl)benzoyl)-N3,N4-bis((1S,2R)-2-phenylcyclopropyl) pyrrolidine-3,4-dicarboxamide], the EC50 at TLR2 [1] (average of all runs (Table 4)) is > 1000 nM. The same molecule came in with an IC50 at TLR2 [2] of 1 to 350 nM.
On to `CCCCCCN1C(=O)[C@H](CNC(=O)c2ccc(C(=O)N3C[C@@H](C(=O)N[C@H]4C[C@@H]4c4ccccc4)[C@H](C(=O)N[C@H]4C[C@@H]4c4ccccc4)C3)cc2)NC(=O)[C@@H]1CCCCC` [Compound 176, (3S,4S)-1-(4-((((2S,5S)-4-hexyl-3,6-dioxo-5-pentylpiperazin-2-yl)methyl)carbamoyl)benzoyl)-N3,N4-bis((1S,2R)-2-phenylcyclopropyl)pyrrolidine-3,4-dicarboxamide], for which, on TLR2 [1] (average of all runs (Table 4)), the EC50 is > 1000 nM. The IC50 on TLR2 [2] fell in the range of 1 to 350 nM.
As to `CCCCCCCCCCCCCCN1CC(=O)N[C@@H](CNC(=O)c2ccc(C(=O)N3C[C@@H](C(=O)N[C@H]4C[C@@H]4c4ccccc4)[C@H](C(=O)N[C@H]4C[C@@H]4c4ccccc4)C3)cc2)C1=O` [Compound 177, (3S,4S)-1-(4-((((S)-3,6-dioxo-4-tetradecylpiperazin-2-yl)methyl)carbamoyl)benzoyl)-N3,N4-bis((1S,2R)-2-phenylcyclopropyl)pyrrolidine-3,4-dicarboxamide], on TLR2 [1] (average of all runs (Table 4)), the EC50 was > 1000 nM. The molecule further showed an IC50 at TLR2 [2] of 1 to 350 nM.
Taken in the same sequence, the figures for `O=C(N[C@H]1C[C@@H]1c1ccccc1)[C@@H]1CN(C(=O)c2ccc(C(=O)N3CC[C@@H](n4cnc(-c5ccc(C(F)(F)F)cc5)c4)C3)cc2)C[C@H]1C(=O)N[C@H]1C[C@@H]1c1ccccc1` [Compound 277] were > 1000 nM and 1 to 350 nM.
